Test results as given in the supplement of paper PMC13380429.

Key:
Settings in all cases: 72 h
Caco-2 [1] = assay: cell viability relative to DMSO; higher = less toxic
Calu-3 [2] = assay: as above
HepG2 [3] = assay: as above
U2OS [4] = assay: as above
Vero E6 [5] = assay: as above
Caco-2 [6] = assay: relative viability EC50 (midpoint between 100% and the lowest measured viability); higher = less toxic
Calu-3 [7] = assay: as above
HepG2 [8] = assay: as above
U2OS [9] = assay: as above
Vero E6 [10] = assay: as above
Caco-2 [11] = assay: drug sensitivity score (DSS) for viability; higher = more toxic; extreme values may be limits of the assay
Calu-3 [12] = assay: as above
HepG2 [13] = assay: as above
U2OS [14] = assay: as above
Vero E6 [15] = assay: as above

| Structure (SMILES) | cell viability (Caco-2 [1]; 1 nM) [%] | cell viability (Caco-2 [1]; 10 nM) [%] | cell viability (Caco-2 [1]; 100 nM) [%] | cell viability (Caco-2 [1]; 1000 nM) [%] | cell viability (Caco-2 [1]; 10000 nM) [%] | cell viability (Calu-3 [2]; 1 nM) [%] | cell viability (Calu-3 [2]; 10 nM) [%] | cell viability (Calu-3 [2]; 100 nM) [%] | cell viability (Calu-3 [2]; 1000 nM) [%] | cell viability (Calu-3 [2]; 10000 nM) [%] | cell viability (HepG2 [3]; 1 nM) [%] | cell viability (HepG2 [3]; 10 nM) [%] | cell viability (HepG2 [3]; 100 nM) [%] | cell viability (HepG2 [3]; 1000 nM) [%] | cell viability (HepG2 [3]; 10000 nM) [%] | cell viability (U2OS [4]; 1 nM) [%] | cell viability (U2OS [4]; 10 nM) [%] | cell viability (U2OS [4]; 100 nM) [%] | cell viability (U2OS [4]; 1000 nM) [%] | cell viability (U2OS [4]; 10000 nM) [%] | cell viability (Vero E6 [5]; 1 nM) [%] | cell viability (Vero E6 [5]; 10 nM) [%] | cell viability (Vero E6 [5]; 100 nM) [%] | cell viability (Vero E6 [5]; 1000 nM) [%] | cell viability (Vero E6 [5]; 10000 nM) [%] | relative viability EC50 (Caco-2 [6]) [µM] | relative viability EC50 (Calu-3 [7]) [µM] | relative viability EC50 (HepG2 [8]) [µM] | relative viability EC50 (U2OS [9]) [µM] | relative viability EC50 (Vero E6 [10]) [µM] | drug sensitivity score (Caco-2 [11]) | drug sensitivity score (Calu-3 [12]) | drug sensitivity score (HepG2 [13]) | drug sensitivity score (U2OS [14]) | drug sensitivity score (Vero E6 [15]) |
| --- | --- | --- | --- | --- | --- | --- | --- | --- | --- | --- | --- | --- | --- | --- | --- | --- | --- | --- | --- | --- | --- | --- | --- | --- | --- | --- | --- | --- | --- | --- | --- | --- | --- | --- | --- |
| O=C(Nc1cccc(C(F)(F)F)c1)Nc1cc(S(=O)(=O)NC2CC2)ccc1-c1ccsc1 [AGI-6780] | 94.2 | 93 | 99.8 | 97.4 | 85.7 | 96.9 | 90.4 | 99 | 103 | 110 | 93.3 | 103 | 94 | 105 | 86.5 | 97.6 | 98.9 | 101 | 92.3 | 87.5 | 95.1 | 97.4 | 93.5 | 97.2 | 106 | > 10 | > 10 | > 10 | > 10 | > 10 | 0.4 | 0 | 0.1 | 0.4 | 0 |
| CN[C@@H](C)C(=O)N[C@H](C(=O)N1CCC[C@H]1C(=O)N[C@H]1c2ccccc2C[C@H]1OCC#CC#CCO[C@@H]1Cc2ccccc2[C@@H]1NC(=O)[C@@H]1CCCN1C(=O)[C@@H](NC(=O)[C@H](C)NC)C1CCCCC1)C1CCCCC1 [AZD5582] | 93.3 | 103 | 102 | 93.4 | 82.4 | 102 | 99.8 | 85.8 | 73.2 | 37.7 | 107 | 98.8 | 94 | 106 | 87.8 | 98.3 | 104 | 98.4 | 101 | 91.1 | 100 | 106 | 119 | 95.2 | 136 | > 10 | 0.927 | > 10 | > 10 | > 10 | 1.1 | 6.8 | 0 | 0 | 0 |
| CSc1ccc(C(=O)N[C@@H]2CCCC[C@@H]2NC(=O)CNC(=O)c2cc(C(F)(F)F)ccc2NC(=O)NC(C)C)cc1 [BMS-CCR2-22] | 93.2 | 87.7 | 94.5 | 100 | 89.6 | 112 | 94 | 98.1 | 101 | 101 | 108 | 95.8 | 101 | 98 | 88 | 102 | 101 | 96.5 | 103 | 94.5 | 101 | 102 | 102 | 101 | 95.1 | > 10 | > 10 | > 10 | > 10 | > 10 | 0 | 0 | 0.1 | 0 | 0 |
